We go through 13 molecules from patent US5585376A, “1,5-benzodiazepine derivatives having CCK and/or gastrin antagonistic activity” (Glaxo Wellcome Inc., priority 1993, dated 1996).

The target in one series is T1, human CCK-B receptor (Homo sapiens, UniProt P32239).
T1 construct: expressed in transfected cells; host or cells: HeLa cells (membranes), stably transfected
T1 sequence (P32239 1-447): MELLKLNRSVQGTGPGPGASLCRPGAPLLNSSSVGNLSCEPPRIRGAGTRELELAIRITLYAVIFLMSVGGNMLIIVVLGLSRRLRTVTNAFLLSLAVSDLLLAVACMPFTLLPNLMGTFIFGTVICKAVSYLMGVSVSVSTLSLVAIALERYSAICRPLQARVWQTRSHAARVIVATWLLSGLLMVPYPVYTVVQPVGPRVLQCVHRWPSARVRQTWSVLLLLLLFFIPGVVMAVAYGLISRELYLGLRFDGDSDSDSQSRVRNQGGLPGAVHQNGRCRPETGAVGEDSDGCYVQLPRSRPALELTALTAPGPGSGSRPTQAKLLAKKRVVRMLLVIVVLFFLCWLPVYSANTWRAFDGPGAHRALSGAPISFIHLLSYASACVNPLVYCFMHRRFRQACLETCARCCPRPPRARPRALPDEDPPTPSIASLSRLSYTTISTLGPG
As to the kind of experiment: CCK-B receptor binding, transfected HeLa cell membranes, [125I]BH-sCCK-8. As to conditions: HeLa cell membranes stably transfected with human CCK-B receptor; 30 pM [125I]BH-sCCK-8. The method, then: Alternatively the binding affinity of compounds of the invention for CCK-A and CCK-B receptors may be determined using HeLa cell membranes that are transfected with the human CCK-B receptor or, COS-M6 cell membranes that are transiently transfected with the human CCK-A receptor.
CCK-B receptor binding studies were carried out using HeLa cell membranes which had been stabily transfected with the human CCK-B receptor cloned from temporal cortex cDNA library.
The transfected HeLa cell membranes were incubated with 30 pM [^125 ]BH-sCCK-8 in the presence of various concentrations of the test compound (1 pM to 1 μM). All experiments were performed in an assay volume of 250 μl. Membranes were harvested onto GF/C glass fibre filter paper (Whatman, UK) by rapid filtration using a Cell Harvester (Brandel model M-24R) and washed three times with HEPES Wash buffer chilled to 4° C. The radioactivity trapped on individual filter discs was counted over 60 seconds using a gamma counter (Mini Gamma counter, LKB, Wallac, Finland) at a counting efficiency of 77%. A control experiment was also carded out in the absence of a test compound.
Analysis of the data was performed by computer-assisted non-linear regression (ALLFIT programmes DeLean et al., 1978;). IC50 values for the test compounds were convened to Ki values using the Cheng & Prussof equation (Ki =IC50 /(1+[L]/KD)) (Cheng and Prussof, 1973).

The subject of a further series is gastric acid secretion. The experiment in a line: gastric acid secretion in the gastrin fistula rat. The conditions noted are these: 0.3 and 1 mg/kg iv. The series is classed as in vivo. An excerpt: (§1) The compounds of the invention are essential non-toxic a theraapeutically active doses.
Series [1] is described as follows: untoward effects in the gastrin fistula rat. The series is classed as in vivo. As to conditions: 0.3 and 1 mg/kg iv.
Description: as §1

Molecules are shown by their SMILES.

The molecule `O=C(Nc1ccc(F)cc1)NC1C(=O)N(CC(=O)N2CCCC2)c2ccccc2N(C2CCCCC2)C1=O` (single isomer, unassigned) [1 (isomer 2), 1-[1-Cyclohexyl-2,4-dioxo-5-(2-oxo-2-pyrrolidin-1-yl-ethyl)-2,3,4,5-tetrahydro-1H-benzo[b][1.4]diazepin-3-yl]-3-(4-fluoro-phenyl)urea] showed a Ki at human CCK-B receptor of 7.94 nM.
For the molecule `O=C(Nc1ccc(F)cc1)NC1C(=O)N(CC(=O)N2CCCC2)c2ccccc2N(C2CCCCC2)C1=O` (single isomer, unassigned) [Example 1 (isomer 1), 1-[1-Cyclohexyl-2,4-dioxo-5-(2-oxo-2-pyrrolidin-1-yl-ethyl)-2,3,4,5-tetrahydro-1H-benzo[b][1.4]diazepin-3-yl]-3-(4-fluoro-phenyl)urea], the Ki at human CCK-B receptor was 3.16 nM. In the series with gastric acid secretion, the gastric acid secretion result is on record as “significally inhibited”. In addition, the untoward effects result in series [1] is given as “no untoward effects were observed”.
For the molecule `O=C(Nc1ccc(F)cc1)NC1C(=O)N(CC(=O)N2CCCC2)c2ccccc2N(C2CCCCC2)C1=O` (stereo not drawn) [Example 1, 1-[1-Cyclohexyl-2,4-dioxo-5-(2-oxo-2-pyrrolidin-1-yl-ethyl)-2,3,4,5-tetrahydro-1H-benzo[b][1.4]diazepin-3-yl]-3-(4-fluoro-phenyl)urea], the Ki at human CCK-B receptor was 3.16 nM.
The same measure, in the same setting: with `O=C(Nc1cccc(C(=O)O)c1)NC1C(=O)N(CC(=O)N2CCCC2)c2ccccc2N(C2CCCCC2)C1=O` (stereo not drawn) [Example 2, 3-{3-[1-Cyclohexyl-2,4-dioxo-5-(2-oxo-2-pyrrolidin-1-yl-ethyl)-2,3,4,5-tetrahydro-1H-benzo[b][1.4]diazepin-3-yl]-ureido}-benzoic acid] the figure was 2 nM.
Same read-out and setting: the value for `O=C(O)Cc1cccc(NC(=O)NC2C(=O)N(CC(=O)N3CCCC3)c3ccccc3N(c3ccccc3F)C2=O)c1` (stereo not drawn) [Example 3, (3-{3-[1-(2-Fluoro-phenyl)-2,4-dioxo-5-(2-oxo-2-pyrrolidin-1-yl-ethyl)-2,3,4,5-tetrahydro-1H-benzo[b][1,4]diazepin-3-yl]-ureido}-phenyl)-acetic acid] was 3.98 nM; that for `CC1(C)CCCN(C(=O)CN2C(=O)C(NC(=O)Nc3cccc(C(=O)O)c3)C(=O)N(c3ccccc3F)c3ccccc32)C1` (stereo not drawn) [Example 4, 3-{3-[1-[2-(3,3-Dimethyl-piperidin-1-yl)-2-oxo-ethyl]-5-(2-fluoro-phenyl)-2,4-dioxo-2,3,4,5-tetrahydro-1H-benzo[b][1,4]diazepin-3-yl]-ureido}-benzoic acid] was 1.58 nM.
Consider `O=C(Nc1cccc(F)c1)NC1C(=O)N(CC(=O)N2CCCC2)c2ccccc2N(C2CCCCC2)C1=O` (stereo not drawn) [Example 7], for which the Ki at human CCK-B receptor is 5.01 nM.
On the same count and under the same terms, the value for `O=C(Nc1cccc([N+](=O)[O-])c1)NC1C(=O)N(CC(=O)N2CCCC2)c2ccccc2N(C2CCCCC2)C1=O` (stereo not drawn) [Example 8] was 2.51 nM; that for `O=C(Nc1ccccc1)NC1C(=O)N(CC(=O)N2CCCC2)c2ccccc2N(C2CCCCC2)C1=O` (stereo not drawn) [Example 10] was 3.98 nM; that for `CN(C)c1cccc(NC(=O)NC2C(=O)N(CC(=O)N3CCCC3)c3ccccc3N(C3CCCCC3)C2=O)c1` (stereo not drawn) [Example 12] was 1 nM.
On the same count and under the same terms, with `O=C(Nc1cccc(-c2nn[nH]n2)c1)NC1C(=O)N(CC(=O)N2CCCC2)c2ccccc2N(c2ccccc2)C1=O` (stereo not drawn) [Example 14] the figure was 3.16 nM; with `Cc1cccc(NC(=O)NC2C(=O)N(CC(=O)N3CCCC3)c3ccccc3N(c3ccccc3)C2=O)c1` (stereo not drawn) [Example 15], 1.58 nM; with `CC1(C)CCCN(C(=O)CN2C(=O)C(NC(=O)Nc3ccc(F)cc3)C(=O)N(c3ccccc3F)c3ccccc32)C1` (stereo not drawn) [Example 20], 2 nM.

One may read the Ki as the dissociation constant of the complex between target and ligand, obtained from inhibition or displacement.
